50 molecules from patent US9469645B2, “Compounds and compositions for the treatment of parasitic diseases” (Novartis AG, priority 2009, dated 2016) can be followed below.

The subject of one test is 3D7 P. falciparum strain. The test can be described thus: parasite proliferation assay in infected red blood cells (SYBR Green I). It counts as cell-based, Plasmodium falciparum. The note with it: Plasmodium falciparum, 3D7, Erythrocyte, 3D7 strain; read-out: EC50 3D7 strain. The method, boiled down: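 P. falciparum 3D7 grown in O+ human erythrocytes to 3–8% parasitemia and exposed to compounds. Proliferation read as the increase in parasite DNA. Detection used SYBR Green I in saponin/triton-X/EDTA lysis buffer, with overnight lysis at room temperature.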

A further test deals with W2 strain. The test can be described thus: parasite proliferation assay in infected red blood cells (SYBR Green I), W2 strain. It counts as cell-based. Particulars: Erythrocyte. From the text:
Compounds of the invention can be assayed to measure their capacity to inhibit proliferation of parasitemia in infected red blood cells. The proliferation is quantified by the addition of SYBR Green I (INVITROGEN)® dye which has a high affinity for double stranded DNA.

Regarding `CC1(C)c2nc(-c3ccc(F)cc3)c([S+]([O-])c3ccc(F)cc3)n2CCN1C(=O)CN` (stereo not shown) [Compound 720], the half-maximal effective concentration (EC50) with 3D7 P. falciparum strain turned out to be 70 nM; in the test on W2 strain (Plasmodium falciparum), 69 nM.

`Cc1ccc(Nc2c(-c3ccc(F)cc3)nc3n2CCN(C(=O)C(C)(N)C(F)(F)F)C3)cc1` (stereo not shown) [Compound 366]: the EC50 in the test with 3D7 P. falciparum strain amounted to 3470 nM; in the test with W2 strain, 1820 nM.

In the case of `COC(C(=O)N1CCn2c(nc(-c3ccc(F)cc3)c2Nc2ccc(C)cc2)C1)c1ccccc1` (stereo not shown) [Compound 125], the EC50 in the test with 3D7 P. falciparum strain was found to be 50 nM; with W2 strain, 44 nM.

As to `Cc1ccc(Nc2c(-c3ccc(F)cc3)nc3n2CCN(C(=O)C(O)c2ccc(Br)cc2)C3)cc1` (stereo not shown) [Compound 126], the 50% effective concentration (EC50) is 100 nM in the test with 3D7 P. falciparum strain and 80 nM in the test with W2 strain.

For the molecule `O=C(CCc1ccccc1F)N1CCn2c(nc(-c3ccc(F)cc3)c2Nc2ccc(Cl)c(F)c2)C1` [Compound 359], the concentration giving a half-maximal response (EC50) amounted to 140 nM in the test with 3D7 P. falciparum strain and 108 nM in the test with W2 strain.

In the case of `Cc1ccc(Nc2c(-c3ccc(F)cc3)nc3n2CCN(C(=O)[C@@H](C)c2ccccc2)C3)cc1` [Compound 175], the values for the EC50 with 3D7 P. falciparum strain and in the test on W2 strain were 80 nM and 105 nM, respectively.

For the molecule `CC1(C)CN(C(=O)CN)Cc2nc(-c3cccc(F)c3)c(Nc3ccc(F)c(Cl)c3)n21` [Compound 624], the results for the EC50 in the test on 3D7 P. falciparum strain and with W2 strain (Plasmodium falciparum) were 100 nM and 167 nM, respectively.

On to `CC1(C)c2nc(-c3ccc(F)cc3)c(Nc3ccc(F)c(C(F)(F)F)c3)n2CCN1C(=O)CN` [Compound 657], for which the EC50 in the test with 3D7 P. falciparum strain is 618 nM; in the test with W2 strain (Plasmodium falciparum), 1090 nM.

As for `Cc1cc(Nc2c(-c3ccc(F)cc3)nc3n2CCN(C(=O)CN)C3(C)C)ccc1Cl` [Compound 659], the results for the EC50 with 3D7 P. falciparum strain and in the test with W2 strain (Plasmodium falciparum) were 4390 nM and 5280 nM, respectively.

With `CC(C)(C)CC(C)(C)Nc1c(-c2ccccc2OCCO)nc2ccccn12` [Compound 746], the figures for the EC50 with 3D7 P. falciparum strain and in the test on W2 strain (Plasmodium falciparum) were above 10000 nM and 6940 nM, respectively.

`CC1(C)C(=O)NCc2nc(-c3ccc(F)cc3)c(Nc3ccc(Cl)c(F)c3)n21` [Compound 618]: the figures for the EC50 with 3D7 P. falciparum strain and with W2 strain (Plasmodium falciparum) were 2130 nM and 2890 nM, respectively.

`COC[C@H](N)C(=O)N1CCn2c(nc(-c3ccc(F)cc3)c2Nc2ccc(Cl)c(F)c2)C1` [Compound 301]: the EC50 in the test on 3D7 P. falciparum strain was 30 nM; in the test on W2 strain, 47 nM.

Regarding `CC(C)(C)[C@H](N)C(=O)N1CCn2c(nc(-c3ccc(F)cc3)c2Nc2ccc(Cl)c(F)c2)C1` [Compound 326], the EC50 was 30 nM with 3D7 P. falciparum strain and 22 nM in the test with W2 strain.

As to `Cc1ccc(Nc2c(-c3ccc(F)cc3)nc3n2CCN(C(=O)C(C)(C)CO)C3)cc1` [Compound 244], the half-maximal effective concentration (EC50) with 3D7 P. falciparum strain is 2400 nM; with W2 strain it was 1330 nM.

As for `CCO[C@@H](Cc1ccc(O)cc1)C(=O)N1CCn2c(nc(-c3ccc(F)cc3)c2Nc2ccc(C)cc2)C1` [Compound 210], the EC50 came out at 40 nM in the test on 3D7 P. falciparum strain and 26 nM in the test with W2 strain.

Turning to `Fc1ccc(Nc2c(-c3ccc(F)cc3)nc3n2CCNC3)cc1` [Example 28, N,2-bis(4-fluorophenyl)-5,6,7,8-tetrahydroimidazo[1,2-a]pyrazin-3-amine], the values for the EC50 in the test with 3D7 P. falciparum strain and with W2 strain were 200 nM and 175 nM, respectively.

As for `CC1(C)c2nc(-c3ccc(F)cc3)c(Nc3ccc(OC(F)(F)F)cc3)n2CCN1C(=O)CN` [Compound 649], the EC50 in the test with 3D7 P. falciparum strain was 24 nM; with W2 strain (Plasmodium falciparum), 18 nM.

Consider `O=C(CN1CCS(=O)(=O)CC1)N1CCn2c(nc(-c3ccc(F)cc3)c2Nc2ccc(F)cc2)C1` [Compound 42], for which the EC50 in the test on 3D7 P. falciparum strain came to 6100 nM; in the test with W2 strain, 4610 nM.

Take `CN(C)CCN1C(=O)Cn2c(nc(-c3ccc(F)cc3)c2Nc2ccc(Cl)c(F)c2)C1(C)C` [Compound 685]: the results for the EC50 in the test on 3D7 P. falciparum strain and in the test on W2 strain (Plasmodium falciparum) were 173 nM and 131 nM, respectively.

As to `CCCCCNc1ccc(C[C@H](N)C(=O)N2CCn3c(nc(-c4ccc(F)cc4)c3Nc3ccc(C)cc3)C2)cc1` [Compound 272], the concentration giving a half-maximal response (EC50) in the test on 3D7 P. falciparum strain is 3590 nM; in the test on W2 strain, 3260 nM.

Consider `CNCC(=O)N1CCn2c(nc(-c3ccc(F)cc3)c2Nc2ccc(C)cc2)C1` [Compound 75], for which the EC50 stood at 250 nM in the test on 3D7 P. falciparum strain and 190 nM in the test on W2 strain.

For `CC1(C)c2nc(-c3ccc(F)cc3)c(Nc3ccc(F)cc3)n2CCN1C(=O)CNC(=O)CCNC(=O)CCc1ccccc1` [Compound 728], the EC50 is 5400 nM in the test on 3D7 P. falciparum strain and 1480 nM in the test on W2 strain (Plasmodium falciparum).

With `Cc1cc(C)cc([S+]([O-])c2c(-c3ccc(F)cc3)nc3n2CCN(C(=O)CN)C3(C)C)c1` (stereo not shown) [Compound 722], the results for the concentration for a half-maximal effect (EC50) with 3D7 P. falciparum strain and in the test with W2 strain (Plasmodium falciparum) were 381 nM and 281 nM, respectively.

As for `CC(C)(N)C(=O)N1CCn2c(nc(-c3ccc(F)cc3)c2Nc2ccc(OC(F)F)cc2)C1` [Compound 642], the values for the concentration giving a half-maximal response (EC50) in the test on 3D7 P. falciparum strain and in the test on W2 strain (Plasmodium falciparum) were 2010 nM and 2500 nM, respectively.

As to `CC(=O)Nc1ccc(C[C@H](N)C(=O)N2CCn3c(nc(-c4ccc(F)cc4)c3Nc3ccc(C)cc3)C2)cc1` [Compound 160], the EC50 stood at 4320 nM in the test on 3D7 P. falciparum strain and 2390 nM in the test with W2 strain.

For the molecule `CCCC(=O)Nc1ccc(C[C@H](N)C(=O)N2CCn3c(nc(-c4ccc(F)cc4)c3Nc3ccc(C)cc3)C2)cc1` [Compound 197], the EC50 is 4160 nM in the test with 3D7 P. falciparum strain and 1040 nM in the test with W2 strain.

Regarding `Cc1ccc(Nc2c(-c3ccc(F)cc3F)nc3n2CCN(C(=O)CN)C3)cc1` [Compound 387], the figures for the half-maximal effective concentration (EC50) in the test on 3D7 P. falciparum strain and in the test on W2 strain were 110 nM and 80 nM, respectively.

`Cc1ccc(Nc2c(-c3ccc(F)cc3)nc3n2CCN(C(=O)[C@H](C)O)C3)cc1` [Compound 81]: the results for the EC50 with 3D7 P. falciparum strain and in the test on W2 strain were 300 nM and 449 nM, respectively.

For the molecule `O=C(Cc1ccncc1)N1CCn2c(nc(-c3ccc(F)cc3)c2Nc2ccc(Cl)c(F)c2)C1` [Compound 302], the EC50 in the test on 3D7 P. falciparum strain stood at 170 nM; in the test with W2 strain, 149 nM.

Take `CCN(CC)CCOc1ccccc1-c1nc2ccccn2c1NC(C)(C)CC(C)(C)C` [Compound 744]: the values for the EC50 in the test on 3D7 P. falciparum strain and with W2 strain (Plasmodium falciparum) were 5240 nM and 2810 nM, respectively.

Regarding `CC[C@H](C(=O)N1CCn2c(nc(-c3ccc(F)cc3)c2Nc2ccc(C)cc2)C1)c1ccccc1` [Compound 225], the EC50 in the test on 3D7 P. falciparum strain was 550 nM; in the test with W2 strain, 316 nM.

For the molecule `CC(C)(N)C(=O)N1CCn2c(nc(-c3ccc(F)cc3)c2Nc2ccc(C#N)cc2)C1` [Compound 263], the results for the EC50 with 3D7 P. falciparum strain and in the test with W2 strain were 350 nM and 653 nM, respectively.

`Cc1ccc(Nc2c(-c3ccc(F)cc3)nc3n2CCN(C(=O)CC2CCCCO2)C3)cc1` (stereo not shown) [Compound 216]: the half-maximal effective concentration (EC50) with 3D7 P. falciparum strain was 300 nM; in the test with W2 strain it was 248 nM.

On to `CCCCCNCC(=O)N1CCn2c(nc(-c3ccc(F)cc3)c2Nc2ccc(C)cc2)C1` [Compound 308], for which the EC50 with 3D7 P. falciparum strain is 60 nM; in the test on W2 strain, 68 nM.

As for `Cc1ccc(Nc2c(-c3ccc(F)cc3)nc3n2CCN(C(=O)[C@@H]2CCCN2)C3)cc1` [Compound 90], the EC50 came to 650 nM in the test on 3D7 P. falciparum strain and 600 nM in the test with W2 strain.

In the case of `Cc1ccc(Nc2c(-c3ccc(F)cc3)nc3n2CCN(Cc2ccc(-c4ccncc4)cc2)C3)cc1` [Compound 184], the EC50 was 3650 nM in the test on 3D7 P. falciparum strain and 859 nM with W2 strain.

With `O=C(CN1CCn2c(nc(-c3ccc(F)cc3)c2Nc2ccc(Cl)cc2)C1)c1ccc(F)cc1` [Compound 271], the EC50 was 440 nM with 3D7 P. falciparum strain and 385 nM with W2 strain.

Turning to `CN1Cc2nc(-c3ccc(F)cc3)c(Nc3ccc(Cl)cc3)n2C(C)(C)C1` [Compound 608], the figures for the EC50 with 3D7 P. falciparum strain and in the test with W2 strain (Plasmodium falciparum) were 6910 nM and 5560 nM, respectively.

For the molecule `Cc1cc(Nc2c(-c3ccc(F)cc3)nc3n2CCN(C(=O)C(C)(C)N)C3)ccc1F` [Compound 628], the EC50 is 33 nM in the test on 3D7 P. falciparum strain and 40 nM in the test on W2 strain (Plasmodium falciparum).

Consider `CCCCCN[C@H](C(=O)N1CCn2c(nc(-c3ccc(F)cc3)c2Nc2ccc(C)cc2)C1)c1ccccc1` [Compound 296], for which the figures for the EC50 with 3D7 P. falciparum strain and with W2 strain were 280 nM and 424 nM, respectively.

Turning to `NC(C(=O)N1CCn2c(nc(-c3cccc(F)c3)c2Nc2ccc(Cl)c(F)c2)C1)C(F)(F)F` (stereo not shown) [Compound 221], the results for the EC50 with 3D7 P. falciparum strain and in the test on W2 strain were 90 nM and 83 nM, respectively.

In the case of `COc1ccc(Cc2c(-c3ccc(F)cc3)nc3n2CCN(C(=O)CN)C3(C)C)cc1` [Compound 695, 2-amino-1-(2-(4-fluorophenyl)-3-(4-methoxybenzyl)-8,8-dimethyl-5,6-dihydroimidazol[1,2-a]pyrazin-7(8H)-yl)ethanone], the results for the EC50 in the test on 3D7 P. falciparum strain and in the test with W2 strain (Plasmodium falciparum) were 17 nM and 19 nM, respectively.

Take `Fc1cccc(-c2nc3cnccn3c2Nc2ccc(Cl)c(F)c2)c1` [Compound 207]: the EC50 was 9310 nM with 3D7 P. falciparum strain and 2420 nM in the test with W2 strain.

For `Cc1ccc(Nc2c(-c3cccc(Cl)c3)nc3n2CCNC3)cc1` [Compound 279], the EC50 in the test on 3D7 P. falciparum strain was determined as 3520 nM; with W2 strain, 3830 nM.

`CC(C)C[C@@H](N)C(=O)N1CCn2c(nc(-c3ccc(F)cc3)c2Nc2ccc(Cl)c(F)c2)C1` [Compound 394]: the concentration for a half-maximal effect (EC50) with 3D7 P. falciparum strain is 50 nM; in the test on W2 strain, 43 nM.

In the case of `CC(C)(N)C(=O)N1CCn2c(nc(-c3ccc(F)cc3)c2Nc2cccc(OC(F)(F)F)c2)C1` [Compound 640], the EC50 is 3950 nM with 3D7 P. falciparum strain and 4510 nM in the test on W2 strain (Plasmodium falciparum).

With `CC(C)(N)C(=O)N1CCn2c(nc(-c3ccc(F)cc3)c2Nc2ccc(F)cc2)C1` [Compound 3], the values for the EC50 in the test on 3D7 P. falciparum strain and in the test with W2 strain were 20 nM and 25 nM, respectively.

With `Cc1ccc(Nc2c(-c3ccc(F)cc3)nc3n2CCN(C(=O)C(O)c2cccc(C(F)(F)F)c2)C3)cc1` (stereo not shown) [Compound 124], the EC50 came out at 40 nM in the test on 3D7 P. falciparum strain and 28 nM in the test with W2 strain.

`CC1CCc2nc(-c3ccc(F)cc3)c(Nc3ccc(Cl)c(F)c3)n2C1` (stereo not shown) [Compound 754]: the EC50 in the test with 3D7 P. falciparum strain was determined as 104 nM; in the test with W2 strain (Plasmodium falciparum) it was 190 nM.

For the molecule `COc1ccccc1-c1nc2n(c1Nc1ccc(C)cc1)CCN(C(=O)CN)C2` [Compound 381], the figures for the EC50 with 3D7 P. falciparum strain and with W2 strain were 1970 nM and 1800 nM, respectively.
